Tests used:
[1] = test system: Escherichia coli (Stratagene, BLR); experiment: Short-term effect (CFU); format: cell-based
Description: For this purpose, the procedure was as follows.
LB growth medium (Becton, Dickinson and Company, Sparks, USA) […] make up to 1 liter, set pH 7
The growth test was effected as follows: 10 ml of LB medium were inoculated with E. coli and incubated at 37° C. and 200 rpm overnight.
1.5 ml reaction vessels were each filled with 1 ml of LB medium and inoculated with the E. coli suspension from the overnight culture. The E. coli suspension was adjusted at the start of the experiment to an optical density, measured at 600 nm, of 0.1. The concentration of the peptide solution in water or ZPT solution (zinc pyrithione, >96%, Sigma Aldrich) dissolved in DMSO was 2% (w/w).
The following growth was compared: • E. coli suspension and addition of P18 peptide with a final concentration in the 1.5 ml reaction vessel of 50 ppm after 5 minutes, 10 minutes, 20 minutes and 60 minutes • E. coli suspension and addition of P18 peptide with a final concentration in the 1.5 ml reaction vessel of 100 ppm after 5 minutes, 10 minutes, 20 minutes and 60 minutes • E. coli suspension and addition of P18 peptide with a final concentration in the 1.5 ml reaction vessel of 200 ppm after 5 minutes, 10 minutes, 20 minutes and 60 minutes • E. coli suspension and addition of P18 peptide with a final concentration in the 1.5 ml reaction vessel of 500 ppm after 5 minutes, 10 minutes, 20 minutes and 60 minutes • E. coli suspension and addition of P18 peptide with a final concentration in the 1.5 ml reaction vessel of 1000 ppm after 5 minutes, 10 minutes, 20 minutes and 60 minutes • E. coli suspension and addition of ZPT with a final concentration in the 1.5 ml reaction vessel of 50 ppm after 5 minutes, 10 minutes, 20 minutes and 60 minutes • E. coli suspension and addition of ZPT with a final concentration in the 1.5 ml reaction vessel of 100 ppm after 5 minutes, 10 minutes, 20 minutes and 60 minutes • E. coli suspension and addition of ZPT with a final concentration in the 1.5 ml reaction vessel of 200 ppm after 5 minutes, 10 minutes, 20 minutes and 60 minutes • E. coli suspension and addition of ZPT with a final concentration in the 1.5 ml reaction vessel of 500 ppm after 5 minutes, 10 minutes, 20 minutes and 60 minutes • E. coli suspension and addition of ZPT with a final concentration in the 1.5 ml reaction vessel of 1000 ppm after 5 minutes, 10 minutes, 20 minutes and 60 minutes
The 1.5 ml reaction vessels were incubated at room temperature.
After the incubation times specified, the colony forming units (CFU) were determined by streaking 1 μl of each of the suspensions diluted in 20 μl of LB medium and, after incubation for 2 days, counting the colonies.

Malassezia furfur = experiment: Growth inhibition at equal concentrations by weight of P18, zinc pyrithione, climbazole, ketoconazole (CFU); format: cell-based
Description: The studies described hereinafter were conducted on the Malassezia furfur strain DSM 6170.
For this purpose, the procedure was as follows:
The growth test was effected as follows: a shake culture containing M472 Pityrosporum medium was inoculated with M. furfur and incubated with shaking at 30° C. and 200 rpm overnight.
A 96-well microtiter plate was filled with 100 μl per well of M472 Pityrosporum medium and inoculated with M. furfur suspension from the overnight culture. The M. furfur suspension was adjusted at the start of the experiment to an optical density, measured at 600 nm, of 0.02. The concentrates of the inhibitor solutions were 1 mM in DMSO for P18 peptide and 10 mM in DMSO for zinc pyrithione, ketoconazole and climbazole. The final DMSO concentration was kept the same in all experiments.
The following growth was compared by measuring the optical density: • M. furfur suspension and addition of the P18 solution with a final concentration of 50 μM (corresponds to 0.0115% (w/w)) • M. furfur suspension and addition of the zinc pyrithione (ZPT) solution with a final concentration of 362 μM (comparison to the mixture containing 50 μM P18 peptide) • M. furfur suspension and addition of the ketoconazole solution with a final concentration of 216 μM (comparison to the mixture containing 50 μM P18 peptide) • M. furfur suspension and addition of the climbazole solution with a final concentration of 390 μM (comparison to the mixture containing 50 μM P18 peptide)
The microtiter plate was incubated with shaking at 30° C.
[…] After incubation over the course of 6 days, the colonies on the plate were counted. The CFU was determined in order to rule out any influence of the biphasic medium, and also the growth form of M. furfur, on the optical density. The experiments were each conducted in double determination, at least in two independent experiments.

Substance: H-KWKLFKKIPKFLHLAKKF-NH2 [P18, H-KWKLFKKIPKFLHLAKKF-NH2]
- Colony forming units after the incubation time specified ([1]; 50 ppm, 5 minutes): 2000 ± 0 CFU
- Colony forming units after the incubation time specified ([1]; 50 ppm, 10 minutes): 2000 ± 0 CFU
- Colony forming units after the incubation time specified ([1]; 50 ppm, 20 minutes): 2000 ± 0 CFU
- Colony forming units after the incubation time specified ([1]; 50 ppm, 60 minutes): 1208 ± 532 CFU
- Colony forming units after the incubation time specified ([1]; 100 ppm, 5 minutes): 2000 ± 0 CFU
- Colony forming units after the incubation time specified ([1]; 100 ppm, 10 minutes): 2000 ± 0 CFU
- Colony forming units after the incubation time specified ([1]; 100 ppm, 20 minutes): 1836 ± 108 CFU
- Colony forming units after the incubation time specified ([1]; 100 ppm, 60 minutes): 726 ± 88 CFU
- Colony forming units after the incubation time specified ([1]; 200 ppm, 5 minutes): 2000 ± 0 CFU
- Colony forming units after the incubation time specified ([1]; 200 ppm, 10 minutes): 2000 ± 0 CFU
- Colony forming units after the incubation time specified ([1]; 200 ppm, 20 minutes): 1310 ± 144 CFU
- Colony forming units after the incubation time specified ([1]; 200 ppm, 60 minutes): 192 ± 56 CFU
- Colony forming units after the incubation time specified ([1]; 500 ppm, 5 minutes): 2000 ± 0 CFU
- Colony forming units after the incubation time specified ([1]; 500 ppm, 10 minutes): 2000 ± 0 CFU
- Colony forming units after the incubation time specified ([1]; 500 ppm, 20 minutes): 816 ± 96 CFU
- Colony forming units after the incubation time specified ([1]; 500 ppm, 60 minutes): 24 ± 16 CFU
- Colony forming units after the incubation time specified ([1]; 1000 ppm, 5 minutes): 2000 ± 0 CFU
- Colony forming units after the incubation time specified ([1]; 1000 ppm, 10 minutes): 2000 ± 0 CFU
- Colony forming units after the incubation time specified ([1]; 1000 ppm, 20 minutes): 369 ± 383 CFU
- Colony forming units after the incubation time specified ([1]; 1000 ppm, 60 minutes): 6 ± 2 CFU
- Colony forming units (CFU) (Malassezia furfur; final conc. 50 μM (0.0115% (w/w)), 24 h): 1 ± 1 CFU
- Colony forming units (CFU) (Malassezia furfur; final conc. 50 μM (0.0115% (w/w)), 40 h): 0 ± 0 CFU

Substance: zinc pyrithione [ZPT]
- Inhibition in words ([1]; 50-1000 ppm, up to 60 minutes): no significant inhibition
- Colony forming units after the incubation time specified ([1]; 50 ppm, 5 minutes): 2000 ± 0 CFU
- Colony forming units after the incubation time specified ([1]; 50 ppm, 10 minutes): 2000 ± 0 CFU
- Colony forming units after the incubation time specified ([1]; 50 ppm, 20 minutes): 2000 ± 0 CFU
- Colony forming units after the incubation time specified ([1]; 50 ppm, 60 minutes): 2000 ± 0 CFU
- Colony forming units after the incubation time specified ([1]; 100 ppm, 5 minutes): 2000 ± 0 CFU
- Colony forming units after the incubation time specified ([1]; 100 ppm, 10 minutes): 2000 ± 0 CFU
- Colony forming units after the incubation time specified ([1]; 100 ppm, 20 minutes): 2000 ± 0 CFU
- Colony forming units after the incubation time specified ([1]; 100 ppm, 60 minutes): 2000 ± 0 CFU
- Colony forming units after the incubation time specified ([1]; 200 ppm, 5 minutes): 2000 ± 0 CFU
- Colony forming units after the incubation time specified ([1]; 200 ppm, 10 minutes): 2000 ± 0 CFU
- Colony forming units after the incubation time specified ([1]; 200 ppm, 20 minutes): 2000 ± 0 CFU
- Colony forming units after the incubation time specified ([1]; 200 ppm, 60 minutes): 2000 ± 0 CFU
- Colony forming units after the incubation time specified ([1]; 500 ppm, 5 minutes): 2000 ± 0 CFU
- Colony forming units after the incubation time specified ([1]; 500 ppm, 10 minutes): 2000 ± 0 CFU
- Colony forming units after the incubation time specified ([1]; 500 ppm, 20 minutes): 2000 ± 0 CFU
- Colony forming units after the incubation time specified ([1]; 500 ppm, 60 minutes): 2000 ± 0 CFU
- Colony forming units after the incubation time specified ([1]; 1000 ppm, 5 minutes): 2000 ± 0 CFU
- Colony forming units after the incubation time specified ([1]; 1000 ppm, 10 minutes): 2000 ± 0 CFU
- Colony forming units after the incubation time specified ([1]; 1000 ppm, 20 minutes): 2000 ± 0 CFU
- Colony forming units after the incubation time specified ([1]; 1000 ppm, 60 minutes): 2000 ± 0 CFU
- Colony forming units (CFU) (Malassezia furfur; final conc. 362 μM, 24 h): 60 ± 40 CFU
- Colony forming units (CFU) (Malassezia furfur; final conc. 362 μM, 40 h): 26 ± 7 CFU
